Values of other authors as cited in patent publication US20190167750A1, “NUTRITIONAL SUPPLEMENTS FOR INCREASING MALE TESTOSTERONE LEVELS” (Innovus Pharmaceuticals, Inc., priority 2017, published 2019).

Assays:
human CYP3A4 = human CYP3A4 (Homo sapiens, UniProt P08684)
P-glycoprotein = P-glycoprotein (Homo sapiens, UniProt P08183)
Chain of P-glycoprotein (P08183 whole entry): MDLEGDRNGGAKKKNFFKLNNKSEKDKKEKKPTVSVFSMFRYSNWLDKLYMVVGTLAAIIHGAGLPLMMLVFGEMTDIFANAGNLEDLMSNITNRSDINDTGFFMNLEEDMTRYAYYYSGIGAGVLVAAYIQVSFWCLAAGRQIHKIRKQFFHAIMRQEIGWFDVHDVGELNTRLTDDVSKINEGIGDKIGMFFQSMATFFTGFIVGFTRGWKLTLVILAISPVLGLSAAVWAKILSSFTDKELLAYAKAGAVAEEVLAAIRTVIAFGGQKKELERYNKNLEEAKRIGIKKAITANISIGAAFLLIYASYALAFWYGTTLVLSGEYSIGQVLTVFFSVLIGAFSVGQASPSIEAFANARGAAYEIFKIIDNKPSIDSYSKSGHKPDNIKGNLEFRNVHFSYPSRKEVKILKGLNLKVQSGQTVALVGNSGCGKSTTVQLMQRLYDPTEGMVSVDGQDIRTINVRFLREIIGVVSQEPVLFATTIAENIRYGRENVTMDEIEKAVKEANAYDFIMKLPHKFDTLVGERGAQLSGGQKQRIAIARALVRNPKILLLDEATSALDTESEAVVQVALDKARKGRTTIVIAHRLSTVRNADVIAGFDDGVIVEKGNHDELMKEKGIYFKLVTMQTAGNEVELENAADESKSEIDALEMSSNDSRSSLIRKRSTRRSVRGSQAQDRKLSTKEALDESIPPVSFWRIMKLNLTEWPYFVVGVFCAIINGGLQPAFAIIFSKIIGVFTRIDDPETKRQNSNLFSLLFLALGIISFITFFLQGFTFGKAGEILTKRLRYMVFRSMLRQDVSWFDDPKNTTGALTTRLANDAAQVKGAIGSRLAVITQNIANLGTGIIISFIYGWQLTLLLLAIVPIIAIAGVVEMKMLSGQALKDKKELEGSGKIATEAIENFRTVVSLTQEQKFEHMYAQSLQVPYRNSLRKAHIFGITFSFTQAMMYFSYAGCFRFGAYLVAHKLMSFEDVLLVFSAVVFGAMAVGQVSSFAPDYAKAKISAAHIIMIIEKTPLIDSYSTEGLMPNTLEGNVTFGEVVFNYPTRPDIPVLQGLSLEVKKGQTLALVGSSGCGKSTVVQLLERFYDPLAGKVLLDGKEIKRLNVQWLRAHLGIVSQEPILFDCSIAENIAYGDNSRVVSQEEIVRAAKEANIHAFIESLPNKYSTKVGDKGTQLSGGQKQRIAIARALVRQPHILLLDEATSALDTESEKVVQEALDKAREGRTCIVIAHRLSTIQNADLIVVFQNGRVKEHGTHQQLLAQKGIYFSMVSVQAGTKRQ

Chain of human CYP3A4 (P08684 whole entry): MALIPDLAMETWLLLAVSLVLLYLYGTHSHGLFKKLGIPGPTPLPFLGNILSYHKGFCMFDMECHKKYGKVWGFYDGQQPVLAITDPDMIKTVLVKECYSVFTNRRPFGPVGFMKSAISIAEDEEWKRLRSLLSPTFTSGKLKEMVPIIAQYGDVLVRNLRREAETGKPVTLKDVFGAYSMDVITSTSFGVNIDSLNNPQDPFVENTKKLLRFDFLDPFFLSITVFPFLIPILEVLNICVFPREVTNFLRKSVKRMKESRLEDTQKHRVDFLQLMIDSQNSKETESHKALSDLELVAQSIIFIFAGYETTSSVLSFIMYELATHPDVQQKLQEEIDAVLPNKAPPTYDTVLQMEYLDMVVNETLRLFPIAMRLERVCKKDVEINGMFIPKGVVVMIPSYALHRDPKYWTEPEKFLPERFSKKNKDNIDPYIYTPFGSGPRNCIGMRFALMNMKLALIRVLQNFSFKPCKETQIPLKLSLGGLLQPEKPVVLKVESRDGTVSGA

- inhibition of human CYP3A4 (human CYP3A4): inhibits
- inhibition of P-glycoprotein (P-glycoprotein): inhibits
Structure (SMILES): O=C(/C=C/C=C/c1ccc2c(c1)OCO2)N1CCCCC1 [Bioperine, (2E,4E)-5-(1,3-benzodioxol-5-yl)-1-(piperidin-1-yl)penta-2,4-dien-1-one]
